Values of other authors in patent US20020015745A1, “Process for enhancing immune response in canines using a dietary composition including garlic” (priority 2000, published 2002).

System: human prostate carcinoma LNCaP cells
Settings: in culture

## C=CCSSC[C@H](N)C(=O)O [S-allylmercaptocysteine]
  growth of human prostate carcinoma LNCaP cells: reduce the growth
